Assay results published in US20070219159A1, “CYCLODEXTRIN COMPOSITIONS AND METHODS OF TREATING VIRAL INFECTIONS” (priority 2002, published 2007).
≈ marks a conversion by molar mass, not a printed value. Like-named read-outs stand apart in the source and are kept apart here.

What was measured:
[1] = test system: HSV-1 strain KOS1.1; assay: CPE reduction assay in Vero cells, HSV-1; format: cell-based
[2] = test system: dlsptk (an ACV-resistant, tk deletion mutant of HSV-1); format: cell-based; conditions: MOI 10
[3] = Aqueous solubility; format: physicochemical
[4] = test system: HCV; assay: In vitro anti-HCV assay in HCV RNA-replicating cell line AVA5; format: cell-based; conditions: HCV
Procedure: The antiviral activity of test compounds were assayed in the stably HCV RNA-replicating cell line. AVA5, derived by transfection of the human hepatoblastoma cell line, Huh^7 (Blight et al., 2000). Experimental drugs were added to dividing cultures once daily for three days. Media was changed with each addition of compound. Cultures generally started the assays at 50% confluence and reached confluence during the last day of treatment. HCV RNA and cellular β-actin RNA levels were assessed 24 hours after the last dose of compound using dot blot hybridization. Assays were conducted using a single dose of test compound (in triplicate cultures).
Both HCV and β-actin RNA levels in the treated cultures were expressed as a percentage of the mean levels of RNA detected in untreated cultures. β-actin RNA levels were used both as a measure of toxicity, and to normalize the amount of cellular RNA in each sample. A level of 30% or less HCV RNA (relative to control cultures) was considered to be a positive antiviral effect, and a level of 50% or less β-actin RNA (relative to control cultures) is considered to be a cytotoxic effect.
Dividing cultures of AVAB cells were treated once daily for three days (media was changed with each addition of compound) with 4 concentrations of test compounds (3 cultures per concentration). A total of 6 untreated control cultures, and triplicate cultures treated with 10, 3, and 1 IU/ml α-interferon (active antiviral with no cytotoxicity), and 100, 10, and 1 μM ribavir ([…]) served as controls. HCV RNA and cellular β-actin FNA levels were assessed 24 hours after the last dose of compound using dot blot hybridization. β-actin RNA levels were used to normalize the amount of cellular RNA in each sample.
Toxicity analyses were performed on separate plates from those used for the antiviral assays. Cells for the toxicity analyses were cultured and treated with test compounds with the same schedule and under identical culture conditions used for the antiviral evaluations. Each compound was tested at 4 concentrations, each in triplicate cultures. Uptake of neutral red dye was used to determine the relative level of toxicity 24 hours following the last treatment. The absorbance of internalized dye at […] (A510) was used for the quantitative analysis. Values in test cultures were compared to 9 cultures of untreated cells maintained on the same plate as the test cultures.
Assays similar to those described above were conducted.

[5] = test system: Vero cells; conditions: 48 hours
[6] = test system: d27-lacZ1 (β-gal HSV); assay: Semi-quantitative PCR of intracellular HSV DNA (HSV entry); conditions: MOI 0.01 or 0.1, β-CD 7.2 mg/ml pre-, 5.4 mg/ml post-infection, versus untreated infected cells
[7] = test system: HSV-1 strain KOS1.1; format: cell-based; conditions: for yield of cell-free and cell-associated virus: 24 hours post-infection, MOI 50, BCD 7.2 mg/ml, ACV 400 μg/ml or both, pre, during and post infection treatment (FIG. 1)
[8] = test system: HSV-1; assay: HSV-1 plaque formation / IC50 study in Vero cells; format: cell-based; conditions: for Plaques ± Std. Dev.: HSV-1 plaques per well, 48 hours
[9] = Human alphaherpesvirus 1, Vero, read-out: % of control ± SEM

Compound: OC[C@H]1O[C@@H]2O[C@H]3[C@H](O)[C@@H](O)[C@@H](O[C@H]4[C@H](O)[C@@H](O)[C@@H](O[C@H]5[C@H](O)[C@@H](O)[C@@H](O[C@H]6[C@H](O)[C@@H](O)[C@@H](O[C@H]7[C@H](O)[C@@H](O)[C@@H](O[C@H]8[C@H](O)[C@@H](O)[C@@H](O[C@H]1[C@H](O)[C@H]2O)O[C@@H]8CO)O[C@@H]7CO)O[C@@H]6CO)O[C@@H]5CO)O[C@@H]4CO)O[C@@H]3CO [BCD, β-cyclodextrin]
- protection of Vero cells by inhibition of viral CPE ([1]; HSV-1, MOI 0.001 and 0.1, BCD 7-8 mg/ml): almost complete protection
- inhibition of infection, direct microscopy and crystal violet staining ([1]; HSV-1, MOI 2.0 (data not shown)): inhibited infection
- anti-herpes effects at high multiplicity of infection ([1]; HSV-1, MOI >50, BCD 7-8 mg/ml): exhibited anti-herpes effects
- anti-HSV activity compared with acyclovir ([1]; β-CD 7.2 mg/ml): comparable to acyclovir in the range of 200 to 400 μg/ml
- reduction of ACV-resistant virus yield ([2]; 6.4 mg/ml BCD, 24 hours): approximately 10^3 PFU
- effect on yield of acyclovir-resistant dlsptk virus (FIG. 2) ([2]; 20 μM (4.5 μg/ml) ACV or 6.4 mg/ml β-CD for 24 hours): lowered the yield
- solubility ([3]; read-out: concentration at which solubility becomes a limiting issue): > 8000 µg/mL
- solubility ([3]; water, read-out: concentrations at which insoluble in water): > 10000 µg/mL
- S.I. for HCV [4]: 1.13
- cell viability (normalized to control cells) ([5]; 5.5 mg/ml BCD): 91.23%
- cell viability (normalized to control cells) ([5]; 7.2 mg/ml BCD): 84.89%
- cytotoxicity ([5]; maximum concentration of BCD): < 15%
- amount of intracellular viral DNA / viral entry [6]: did not significantly alter viral entry
- amount of intracellular viral DNA / viral entry ([6]; listed as β-CD): No significant differences
- reduction of KOS1.1 virus yield at 24 hours ([7]; 6.4 mg/ml BCD, MOI 10, post-infection treatment): approximately 10^3 fold
- yield of cell-free and cell-associated virus [7]: more effective at reducing virus numbers than ACV alone
- yield of cell-free and cell-associated virus ([7]; listed as β-CD): reduced to a greater extent by β-CD than by a fairly high concentration of acyclovir
- effect on yield of acyclovir-sensitive HSV KOS1.1 (FIG. 2) ([7]; MOI 10, 20 μM ACV or 6.4 mg/ml β-CD for 24 hours): lowered the yield
- Plaques ± Std. Dev. ([8]; BCD 3.5 mg/ml): 119.0 ± 1.0
- Plaques ± Std. Dev. ([8]; BCD 4.0 mg/ml): 111.0 ± 6.6
- Plaques ± Std. Dev. ([8]; BCD 4.5 mg/ml): 84.0 ± 10.53
- Plaques ± Std. Dev. ([8]; BCD 5.0 mg/ml): 74.67 ± 4.51
- Plaques ± Std. Dev. ([8]; BCD 5.5 mg/ml): 54.67 ± 5.68
- Plaques ± Std. Dev. ([8]; BCD 6.0 mg/ml): <10
- IC50 ([8]; Human alphaherpesvirus 1, Vero, 48 h): 5100 µg/mL (≈ 4.49 mM)
- activity at 3500 µg/mL [8, 9]: 85.2 ± 0.58%
- activity at 4000 µg/mL [8, 9]: 79.5 ± 3.8%
- activity at 4500 µg/mL [8, 9]: 60.1 ± 6.08%
- activity at 5000 µg/mL [8, 9]: 53.5 ± 2.6%
- activity at 5500 µg/mL [8, 9]: 39.1 ± 3.28%
